In US7468375B2 (Pfizer Inc., priority 2004, dated 2008) one finds IC50 and EC50 data, which are given here for eleven compounds.

As a reminder, the IC50 is the concentration at which inhibition is half-maximal. By EC50 is commonly meant the concentration giving half of the maximal effect.

Structures are written as SMILES. Where two headings read alike, the source gives them in different places.

The target of assay [1] is T1, Full-length wild type HIV-1 integrase (SF1) (Human immunodeficiency virus type 1 group M subtype B, UniProt P04585).
T1 construct: made in house; host or cells: E. coli BL21 (DE3)
In words: Integrase strand-transfer scintillation proximity assay. As to conditions: strand transfer, 50 min at 37° C., 246 nM integrase, 50 nM host DNA; read-out: IC50. Type of assay: biochemical. An excerpt:
Integrase Strand-Transfer Scintillation Proximity Assay Oligonucleotides
Oligonucleotide #1-5′-(biotin)[…]-3′ (SEQ ID NO: 1) and oligonucleotide #2-5′-[…]-3′ (SEQ ID NO: 2), were synthesized by TriLink BioTechnologies, Inc. (San Diego, Calif.). The annealed product represents preprocessed viral ds-DNA derived from the LTR U5 sequence of the viral genome. A ds-DNA control to test for non-specific interactions was made using a 3′ di-deoxy derivative of oligonucleotide #1 annealed to oligonucleotide #2. The CA overhang at the 5′ end of the non-biotinylated strand of the ds-DNA was created artificially by using a complimentary DNA oligonucleotide shortened by 2 base pairs. This configuration eliminates the requisite 3′ processing step of the integrase enzyme prior to the strand-transfer mechanism. Host ds-DNA was prepared as an unlabeled and [^3H]-thymidine labeled product from annealed oligonucleotide #3-5-[…]-3′ (SEQ ID NO: 3), and oligonucleotide #4-5′-[…]-3′ (SEQ ID NO: 4), both synthesized by TriLink BioTechnologies, Inc. (San Diego, Calif.). The annealed product had overhanging 3′ ends of poly(dA). Host DNA was custom radiolabeled by PerkinElmer Life Sciences Inc. (Boston, Mass.) using an enzymatic method with a 12/1 ratio of [methyl-3H]dTTP/cold ds-DNA to yield 5′-blunt end ds-DNA with a specific activity of >900 Ci/mmol. The radiolabeled product was purified using a NENSORB cartridge and stored in stabilized aqueous solution (PerkinElmer). The final radiolabeled product had six [^3H]-thymidine nucleotides at both 5′ ends of the host ds-DNA. Reagents: Streptavidin-coated polyvinyltoluene (PVT) SPA beads were purchased from Amersham Biosciences (Piscataway, N.J.). Cesium chloride was purchased from Shelton Scientific, Inc. (Shelton, Conn.). White, polystyrene, flat-bottom, non-binding surface, 96-well plates were purchased from Corning. All other buffer components were purchased from Sigma (St. Louis, Mo.) unless otherwise indicated.
Enzyme Construction: Full-length wild type HIV-1 integrase (SF1) sequence (amino acids 1-288) was constructed in a pET24a vector (Novagen, Madison, Wis.). The construct was confirmed through DNA sequencing. Enzyme Purification: Full length wild-type HIV Integrase was expressed in E. coli BL21 (DE3) cells and induced with 1 mM isopropyl-1 thio-β-D-galactopyranoside (IPTG) when cells reached an optical density between 0.8-1.0 at 600 nm. Cells were lysed by microfluidation in 50 mM HEPES pH 7.0, 75 mM NaCl, 5 mM DTT, 1 mM 4-(2-Aminoethyl)benzenesulfonylfluoride HCl (AEBSF). Lysate was then centrifuged 20 minutes at 11 k rpm in GSA rotor in Sorvall RC-5B at 4° C. Supernant was discarded and pellet resuspended in 50 mM HEPES pH 7.0, 750 mM NaCl, 5 mM DTT, 1 mM AEBSF and homogenized in a 40 mL Dounce homogenizer for 20 minutes on ice. Homogenate was then centrifuged 20 minutes at 11 k rpm in SS34 rotor in Sorvall RC-5B at 4° C. Supernant was discarded and pellet resuspended in 50 mM HEPES pH 7.0, 750 mM NaCl, 25 mM CHAPS, 5 mM DTT, 1 mM AEBSF. Preparation was then centrifuged 20 minutes at 11 k rpm in SS34 rotor in Sorvall RC-5B at 4° C. Supernant was then diluted 1:1 with 50 mM HEPES pH 7.0, 25 mM CHAPS, 1 mM DTT, 1 mM AEBSF and loaded onto a Q-Sepharose column pre-equilibrated with 50 mM HEPES, pH 7.0, 375 mM NaCl, 25 mM CHAPS, 1 mM DTT, 1 mM AEBSF. The flow through peak was collected and NaCl diluted to 0.1 M with 50 mM HEPES pH 7.0, 25 mM CHAPS, 1 mM DTT, 0.5 mM AEBSF and loaded onto a SP-Sepharose column pre-equilibrated with 50 mM HEPES pH 7.0, 100 mM NaCl, 25 mM CHAPS, 1 mM DTT, 0.5 mM AEBSF. After washing the column with the equilibration buffer, a 100 to 400 mM NaCl gradient was run. The eluted integrase was concentrated and run on a S-300 gel diffusion column using 50 mM HEPES pH 7.0, 500 mM NaCl, 25 mM CHAPS, 1 mM DTT, 0.5 mM AEBSF. The peak from this column was concentrated to 0.76 mg/mL and stored at −70° C. and later used for strand transfer assays. […]
(Scintillation proximity formats need no separation of bound from free tracer.)

Assay [2] relates to RF strain of HIV-1 in CEM-SS cells. In words: HIV-1 cell protection assay (XTT dye reduction). Format: cell-based. How it is done: HIV-1 Cell Protection Assay
The antiviral activities of potential modulator compounds (test compounds) were determined in HIV-1 cell protection assays using the RF strain of HIV-1, CEM-SS cells, and the XTT dye reduction method (Weislow, O. S. et al., J. Natl. Cancer Inst. 81: 577-586 (1989)). Subject cells were infected with HIV-1 RF virus at an moi of 0.025 to 0.819 or mock infected with medium only and added at 2×10^4 cells per well into 96 well plates containing half-log dilutions of test compounds. Six days later, 50 μl of XTT solution (1 mg/ml XTT tetrazolium and […] phenazine methosulfate) were added to the wells and the plates were reincubated for four hours. Viability, as determined by the amount of XTT formazan produced, was quantified spectrophotometrically by absorbance at 450 nm. Data from CPE assays were expressed as the percent of formazan produced in compound-treated cells compared to formazan produced in wells of uninfected, compound-free cells. […] The therapeutic index was calculated by dividing the cytotoxicity (CC50) by the antiviral activity (EC50).
Background: Tetrazolium dyes change colour on reduction, which living cells bring about.

[3] abbreviates: Human immunodeficiency virus 1, CEM-SS, 144 h, HIV-1 RF, CEM-SS cells, XTT dye reduction, six days, read-out: EC50.

As to `CN(Cc1cnn(-c2ccccc2)c1)Cc1cn(Cc2ccc(F)cc2F)c2cnc(C(=O)NO)cc12` [Example 93, 1-(2,4-Difluorobenzyl)-N-hydroxy-3-({methyl[(1-phenyl-1H-pyrazol-4-yl)methyl]amino}methyl)-1H-pyrrolo[2,3-c]pyridine-5-carboxamide], the half-inhibitory concentration (IC50) in assay [1] is 187 nM. Further, the EC50 in assay [2] (setting [3]) came out at 71 nM.
On to `CCOC(=O)N1C2CC[C@@H]1CC(NCc1cn(Cc3ccc(F)cc3F)c3cnc(C(=O)NO)cc13)C2` (stereo in doubt) [Example 97, Ethyl (1R,5S)-3-[({1-(2,4-difluorobenzyl)-5-[(hydroxyamino)carbonyl]-1H-pyrrolo[2,3-c]pyridin-3-yl}methyl)amino]-8-azabicyclo[3.2.1]octane-8-carboxylate], for which, in assay [1], the 50% inhibitory concentration (IC50) turned out to be 311 nM. The EC50 in assay [2] (Human immunodeficiency virus 1, CEM-SS, 144 h) turned out to be 20 nM.
As to `Cc1ccc2c(c1)C(NCc1cn(Cc3ccc(F)cc3F)c3cnc(C(=O)NO)cc13)CCO2` (stereo not shown) [Example 98, 1-(2,4-difluorobenzyl)-N-hydroxy-3-{[(6-methyl-3,4-dihydro-2H-chromen-4-yl)amino]methyl}-1H-pyrrolo[2,3-c]pyridine-5-carboxamide], the IC50 in assay [1] came to 256 nM. Moreover, the EC50 in assay [2] (setting [3]) was 100 nM.
On to `COCc1c(C(=O)NO)ncc2c1ccn2Cc1ccc(F)cc1F` [Example 19, 1-(2,4-Difluorobenzyl)-N-hydroxy-4-(methoxymethyl)-1-H-pyrrolo[2,3-c]pyridine-5-carboxamide], for which, in assay [1], the IC50 was 218 nM. The EC50 in assay [2] (setting [3]) amounted to 48 nM.
Regarding `O=C(NO)c1cc2c(CN3CCOCC3)cn(Cc3ccc(F)cc3F)c2cn1` [Example 2, 1-(2,4-difluorobenzyl)-N-hydroxy-3-(morpholin-4-ylmethyl)-1H-pyrrolo[2,3-c]pyridine-5-carboxamide], in assay [1], the 50% inhibitory concentration (IC50) turned out to be 52.3 nM. Besides, in assay [2] (setting [3]), the 50% effective concentration (EC50) amounted to 68 nM.
For `O=C(NO)c1cc2c(CNCc3ccc(C(F)(F)F)nc3)cn(Cc3ccc(F)cc3F)c2cn1` [Example 88, 1-(2,4-Difluorobenzyl)-N-hydroxy-3-[({[6-(trifluoromethyl)pyridin-3-yl]methyl}amino)methyl]-1H-pyrrolo[2,3-c]pyridine-5-carboxamide], the IC50 in assay [1] was determined as 238 nM. Besides, in assay [2] (setting [3]), the EC50 stood at 16 nM.
Regarding `CCN1CCCC1CNCc1cn(Cc2ccc(F)cc2F)c2cnc(C(=O)NO)cc12` (stereo not shown) [Example 45, 1-(2,4-Difluorobenzyl)-3-({[(1-ethylpyrrolidin-2-yl)methyl]amino}methyl)-N hydroxy-1H-pyrrolo[2,3-c]pyridine-5-carboxamide], the IC50 in assay [1] was found to be 295 nM. In addition, the concentration giving a half-maximal response (EC50) in assay [2] (HIV-1 RF, CEM-SS cells, XTT dye reduction, six days, read-out: EC50) turned out to be 51 nM.
Take `CCN1CCCC1CNCc1cn(Cc2ccc(F)cc2F)c2cnc(C(=O)NOC)cc12` (stereo not shown) [Example 46, 1-(2,4-Difluorobenzyl)-3-({[(1-ethylpyrrolidin-2-yl)methyl]amino}methyl)-N-methoxy-1H-pyrrolo[2,3-c]pyridine-5-carboxamide]: in assay [1], the IC50 was 912 nM. Besides, the half-maximal effective concentration (EC50) in assay [2] (setting [3]) amounted to 130 nM.
As to `CC1(C)OC[C@H](COCc2cn(Cc3ccc(F)cc3)c3cnc(C(=O)NO)cc23)O1` [Example 111, 3-({[(4S)-2,2-dimethyl-1,3-dioxolan-4-yl]methoxy}methyl)-1-(4-fluorobenzyl)-N-hydroxy-1H-pyrrolo[2,3-c]pyridine-5-carboxamide], the IC50 in assay [1] came out at 20 nM. The EC50 in assay [2] (setting [3]) was found to be 77.4 nM.
Taken in the same sequence, the figures for `O=C(NO)c1cc2c(CNCCC3CCOCC3)cn(Cc3ccc(F)cc3F)c2cn1` [Example 96, 1-(2,4-Difluorobenzyl)-N-hydroxy-3-({[2-(tetrahydro-2H-pyran-4-yl)ethyl]amino}methyl)-1H-pyrrolo[2,3-c]pyridine-5-carboxamide] were 511 nM and 30 nM.
For the compound `O=C(NO)c1ncc2c(ccn2Cc2ccc(F)cc2)c1O` [Example 42, 1-(4-Fluorobenzyl)-N,4-dihydroxy-1H-pyrrolo[2,3-c]pyridine-5-carboxamide], the half-maximal inhibitory concentration (IC50) in assay [1] was 27 nM. In addition, the EC50 in assay [2] (setting [3]) was determined as 1 nM.
